Where a name gives a salt, the structure may show the parent alone.
Assays:
[1] = tested on: patients with Irritable Bowel Syndrome (IBS); details: double blind, placebo controlled studies; cited from earlier work
[2] = tested on: subjects with IBS; assay: Double blind, placebo controlled clinical trials of alosetron for IBS, response stratified by 5HTT genotype; assay type: in vivo, human; details: for Relief of IBS symptoms (subjects achieving relief): 12 weeks treatment
Protocol: Genetic samples were obtained from 219 female human subjects enrolled in clinical trials of alosetron for the treatment of IBS. Using PCR technology as is known in the art, an insertion/deletion genetic marker was assayed in the 5-hydroxytryptamine-transporter gene (5HTT gene). The alleles were labeled as “del” (deletion) or “ins” (insertion) resulting in three possible genotypes (del/del; del/ins or ins/ins). The subjects' response to alosetron in the clinical trial setting was reviewed and correlated with genotype. In the double blind, placebo controlled clinical trials; subjects received 12 weeks of treatment with either alosetron or a placebo. A favorable response to alosetron was when a subject reported relief of IBS symptoms during six weeks of the twelve-week trial. The incidence of various other effects, including constipation, was also recorded. The response of subjects to treatment with alosetron in the clinical trial was stratified according to genotype.

Structure (SMILES): Cc1[nH]cnc1CN1CCc2c(c3ccccc3n2C)C1=O [alosetron, Alosetron hydrochloride]
- Effect on pain and bowel function in IBS patients [1]: reduce pain and improve bowel function
- Relief of IBS symptoms (subjects achieving relief) ([2]; del/del 5HTT genotype subjects (21/31), relief during six weeks of the twelve-week trial): 68%
- Constipation reported (incidence) ([2]; del/del subjects (n=31), 4 subjects): 13%
- Relief of IBS symptoms (subjects achieving relief) ([2]; del/ins 5HTT genotype subjects (21/33)): 64%
- Constipation reported (incidence) ([2]; del/ins subjects (n=33), 10 subjects): 30%
- Effectiveness versus placebo in producing relief of IBS symptoms ([2]; in each of the three 5HTT genotypes): more effective than placebo
- Relief of IBS symptoms (subjects achieving relief) ([2]; ins/ins 5HTT genotype subjects (22/38)): 58%
- Constipation reported (incidence) ([2]; ins/ins subjects (n=38), 8 subjects): 21%
- Constipation reported (incidence) ([2]; total group of subjects receiving alosetron (n=102)): 21%

Reference: US20040029138A1, “Global electronic medicine response profile testing network” (priority 2003, published 2004)
